Patent US12221453B2, “Substituted pyrazolo[5′,1′:2,3]pyrimido[5,4-b][1,4]oxazines as TYK2 inhibitors” (TAKEDA PHARMACEUTICAL COMPANY LIMITED, priority 2018, dated 2025)

tested on: IL-12 induced STAT4 phosphorylation mediated by TYK2/JAK2; assay: IL-12 induced pSTAT4 in human PBMC; assay type: cell-based; conditions: 1 hr compound, 1.7 ng/mL IL-12 for 30 minutes
Description: Human PBMC were isolated from buffy coat and are stored frozen for assays as needed. […] 15 μL of compound or DMSO was added to the well at the desired concentrations and incubated at 1 hr at 37° C. 15 μL of stimulus (final concentration of 1.7 ng/mL IL-12) was added for 30 minutes prior to pSTAT4 and total STAT4 analysis using cell lysates prepared and analyzed by MSD reagents as per manufacturer protocol. The final DMSO concentration of compound in the assay was 0.1%. The IL-12 induced pSTAT4 assay evaluates the inhibition of IL-12 induced STAT4 phosphorlyation mediated by TYK2/JAK2 ([…] complex).

Compound	IC50 [µM]
CNc1cc(Nc2cccn(C3CCN(CCF)CC3)c2=O)nc2c(C(=O)NC3CC[C@@H]3F)cnn12 (stereo partly shown) [Compound I-236]	< 0.1
CNc1cc(Nc2cccn(C3CCN(CCF)CC3)c2=O)nc2c(C(=O)N[C@H]3CC[C@@H]3F)cnn12 [Compound I-237]	< 0.1
CNc1cc(Nc2cccn([C@@H]3C[C@H]3F)c2=O)nc2c(C(=O)NC3CCC3(F)F)cnn12 (stereo partly shown) [Compound I-274]	< 0.1
CNc1cc(Nc2cccn([C@@H]3C[C@H]3F)c2=O)nc2c(C(=O)N[C@@H]3CCC3(F)F)cnn12 [Compound I-276]	< 0.1
CNc1cc(Nc2cccn([C@H]3C[C@@H]3F)c2=O)nc2c(C(=O)NC3CCC3(F)F)cnn12 (stereo partly shown) [Compound I-277]	< 0.1
CNc1cc(Nc2cccn([C@H]3C[C@@H]3F)c2=O)nc2c(C(=O)N[C@@H]3CCC3(F)F)cnn12 [Compound I-279]	< 0.1
CNc1cc(Nc2cccn(C3COC3)c2=O)nc2c(C(=O)NC3CCC3(F)F)cnn12 (stereo not shown) [Compound I-280]	< 0.1
CNc1cc(Nc2cccn(C3COC3)c2=O)nc2c(C(=O)N[C@@H]3CCC3(F)F)cnn12 [Compound I-282]	< 0.1
CNc1cc(Nc2cccn([C@H]3CC[C@H]3O)c2=O)nc2c(C(=O)NC3CCC3(F)F)cnn12 (stereo partly shown) [Compound I-286]	< 0.1
CNc1cc(Nc2cccn([C@H]3CC[C@H]3O)c2=O)nc2c(C(=O)N[C@H]3CCC3(F)F)cnn12 [Compound I-287]	< 0.1
CNc1cc(Nc2cccn([C@@H]3CC[C@@H]3O)c2=O)nc2c(C(=O)N[C@H]3CCC3(F)F)cnn12 [Compound I-290]	< 0.1
CNc1cc(Nc2cccn([C@@H]3CCC[C@@H]3O)c2=O)nc2c(C(=O)NC3CCC3(F)F)cnn12 (stereo partly shown) [Compound I-303]	< 0.1
CNc1cc(Nc2cccn([C@@H]3CCC[C@@H]3O)c2=O)nc2c(C(=O)N[C@@H]3CCC3(F)F)cnn12 [Compound I-305]	< 0.1
CNc1cc(Nc2cccn([C@H]3[C@@H]4COC[C@@H]43)c2=O)nc2c(C(=O)NC3CCC3(F)F)cnn12 (stereo partly shown) [Compound I-306]	< 0.1
CNc1cc(Nc2cccn([C@H]3[C@@H]4COC[C@@H]43)c2=O)nc2c(C(=O)N[C@H]3CCC3(F)F)cnn12 [Compound I-307]	< 0.1
CNc1cc(Nc2cccn(C3CCOCC3)c2=O)nc2c(C(=O)NC3CCC3(F)F)cnn12 (stereo not shown) [Compound I-309]	< 0.1
CNc1cc(Nc2cccn(C3CCOCC3)c2=O)nc2c(C(=O)N[C@@H]3CCC3(F)F)cnn12 [Compound I-311]	< 0.1
CNc1cc(Nc2cccn([C@H]3CCCOC3)c2=O)nc2c(C(=O)NC3CCC3(F)F)cnn12 (stereo partly shown) [Compound I-312]	< 0.1
CNc1cc(Nc2cccn([C@H]3CCCOC3)c2=O)nc2c(C(=O)N[C@@H]3CCC3(F)F)cnn12 [Compound I-314]	< 0.1
CNc1cc(Nc2cccn([C@@H]3CCCOC3)c2=O)nc2c(C(=O)NC3CCC3(F)F)cnn12 (stereo partly shown) [Compound I-315]	< 0.1
CNc1cc(Nc2cccn([C@@H]3CCCOC3)c2=O)nc2c(C(=O)N[C@@H]3CCC3(F)F)cnn12 [Compound I-317]	< 0.1
CNc1cc(Nc2cccn(-c3ccccn3)c2=O)nc2c(C(=O)NC3CCC3(F)F)cnn12 (stereo not shown) [Compound I-318]	< 0.1

Compound	IC50 [µM]
CNc1cc(Nc2cccn(-c3ccccn3)c2=O)nc2c(C(=O)N[C@@H]3CCC3(F)F)cnn12 [Compound I-320]	< 0.1
CNc1cc(Nc2cccn(-c3ccc(C)nc3)c2=O)nc2c(C(=O)NC3CCC3(F)F)cnn12 (stereo not shown) [Compound I-324]	< 0.1
CNc1cc(Nc2cccn(-c3ccc(C)nc3)c2=O)nc2c(C(=O)N[C@H]3CCC3(F)F)cnn12 [Compound I-325]	< 0.1
CNc1cc(Nc2cccn([C@@H]3CCC[C@H](C#N)C3)c2=O)nc2c(C(=O)NC3CCC3(F)F)cnn12 (stereo partly shown) [Compound I-327]	< 0.1
CNc1cc(Nc2cccn([C@@H]3CCC[C@H](C#N)C3)c2=O)nc2c(C(=O)N[C@H]3CCC3(F)F)cnn12 [Compound I-328]	< 0.1
CNc1cc(Nc2cccn([C@H]3CCC[C@@H](C#N)C3)c2=O)nc2c(C(=O)NC3CCC3(F)F)cnn12 (stereo partly shown) [Compound I-330]	< 0.1
CNc1cc(Nc2cccn([C@H]3CCC[C@@H](C#N)C3)c2=O)nc2c(C(=O)N[C@H]3CCC3(F)F)cnn12 [Compound I-331]	< 0.1
CNc1cc(Nc2cccn([C@@H]3CCOC[C@@H]3OC)c2=O)nc2c(C(=O)NC3CCC3(F)F)cnn12 (stereo partly shown) [Compound I-336]	< 0.1
CNc1cc(Nc2cccn(C(C)C)c2=O)nc2c(C(=O)NC3CC[C@]3(C)O)cnn12 (stereo partly shown) [Compound I-339]	< 0.1
CNc1cc(Nc2cccn(C(C)C)c2=O)nc2c(C(=O)N[C@@H]3CC[C@@]3(C)O)cnn12 [Compound I-341]	< 0.1
CNc1cc(Nc2cccn(C3CCOCC3)c2=O)nc2c(C(=O)NC3CC[C@]3(C)O)cnn12 (stereo partly shown) [Compound I-348]	< 0.1
CNc1cc(Nc2cccn(C3CCOCC3)c2=O)nc2c(C(=O)N[C@H]3CC[C@]3(C)O)cnn12 [Compound I-349]	< 0.1
CNc1cc(Nc2cccn([C@H]3CCC[C@H]3O)c2=O)nc2c(C(=O)NC3CC[C@]3(C)OC)cnn12 (stereo partly shown) [Compound I-390]	< 0.1
CNc1cc(Nc2cccn([C@H]3CCC[C@H]3O)c2=O)nc2c(C(=O)N[C@H]3CC[C@]3(C)OC)cnn12 [Compound I-391]	< 0.1
CNc1cc(Nc2cccn(C3CCOCC3)c2=O)nc2c(C(=O)NC3CC[C@@]3(C)OC)cnn12 (stereo partly shown) [Compound I-405]	< 0.1
CNc1cc(Nc2cccn(C3CCOCC3)c2=O)nc2c(C(=O)N[C@H]3CC[C@]3(C)OC)cnn12 [Compound I-407]	< 0.1
CNc1cc(Nc2cccn([C@H]3[C@@H]4COC[C@@H]43)c2=O)nc2c(C(=O)N[C@@H]3CC[C@@]3(C)OC)cnn12 [Compound I-410]	< 0.1
CNc1cc(Nc2cccn(-c3ncccc3F)c2=O)nc2c(C(=O)NC3CC[C@@]3(C)OC)cnn12 (stereo partly shown) [Compound I-414]	< 0.1
CNc1cc(Nc2cccn(-c3ncccc3F)c2=O)nc2c(C(=O)N[C@@H]3CC[C@@]3(C)OC)cnn12 [Compound I-415]	< 0.1
CNc1cc(Nc2cccn([C@H]3CCCC[C@H]3O)c2=O)nc2c(C(=O)NC3CC[C@]3(C)OC)cnn12 (stereo partly shown) [Compound I-423]	< 0.1
CNc1cc(Nc2cccn([C@H]3CCCC[C@H]3O)c2=O)nc2c(C(=O)N[C@H]3CC[C@]3(C)OC)cnn12 [Compound I-424]	< 0.1

The next lines start with the values.

IC50 [µM]	Compound
< 0.1	CNc1cc(Nc2cccn([C@H]3CC[C@@H]3OC)c2=O)nc2c(C(=O)NC3CC[C@H]3O)cnn12 (stereo partly shown) [Compound I-239]
< 0.1	CNc1cc(Nc2cccn([C@H]3CC[C@@H]3OC)c2=O)nc2c(C(=O)N[C@H]3CC[C@H]3O)cnn12 [Compound I-240]
< 0.1	CNc1cc(Nc2cccn([C@@H]3CC[C@H]3OC)c2=O)nc2c(C(=O)N[C@H]3CC[C@H]3O)cnn12 [Compound I-243]
< 0.1	CNc1cc(Nc2cccn([C@H]3C[C@@H](OC)C3)c2=O)nc2c(C(=O)N[C@H]3CC[C@@H]3OC)cnn12 [Compound I-253]
< 0.1	CNc1cc(Nc2cccn([C@H]3C[C@H](OC)C3)c2=O)nc2c(C(=O)N[C@H]3CC[C@@H]3OC)cnn12 [Compound I-255]
< 0.1	CNc1cc(Nc2cccn([C@H]3CCC[C@@H](C#N)C3)c2=O)nc2c(C(=O)N[C@@H]3CC[C@H]3OC)cnn12 [Compound I-258]
< 0.1	CNc1cc(Nc2cccn([C@@H]3CCC[C@H](C#N)C3)c2=O)nc2c(C(=O)N[C@@H]3CC[C@H]3OC)cnn12 [Compound I-260]
< 0.1	CNc1cc(Nc2cccn([C@H]3[C@@H]4COC[C@@H]43)c2=O)nc2c(C(=O)N[C@@H]3CC[C@H]3OC)cnn12 [Compound I-262]
< 0.1	CNc1cc(Nc2cccn(-c3ccccn3)c2=O)nc2c(C(=O)N[C@@H]3CC[C@H]3OC)cnn12 [Compound I-264]
< 0.1	CNc1cc(Nc2cccn(-c3ncccc3F)c2=O)nc2c(C(=O)NC3CC[C@H]3OC)cnn12 (stereo partly shown) [Compound I-265]
< 0.1	CNc1cc(Nc2cccn(-c3ncccc3F)c2=O)nc2c(C(=O)N[C@@H]3CC[C@H]3OC)cnn12 [Compound I-266]
< 0.1	CNc1cc(Nc2cccn([C@H]3C[C@H](F)C3)c2=O)nc2c(C(=O)NC3CCC3(F)F)cnn12 (stereo partly shown) [Compound I-283]
< 0.1	CNc1cc(Nc2cccn([C@H]3C[C@H](F)C3)c2=O)nc2c(C(=O)N[C@@H]3CCC3(F)F)cnn12 [Compound I-285]
< 0.1	CNc1cc(Nc2cccn([C@H]3C[C@H](OC)C3)c2=O)nc2c(C(=O)NC3CCC3(F)F)cnn12 (stereo partly shown) [Compound I-292]
< 0.1	CNc1cc(Nc2cccn([C@H]3C[C@H](OC)C3)c2=O)nc2c(C(=O)N[C@H]3CCC3(F)F)cnn12 [Compound I-293]
< 0.1	CNc1cc(Nc2cccn([C@H]3C[C@@H](OC)C3)c2=O)nc2c(C(=O)NC3CCC3(F)F)cnn12 (stereo partly shown) [Compound I-295]
< 0.1	CNc1cc(Nc2cccn([C@H]3C[C@@H](OC)C3)c2=O)nc2c(C(=O)N[C@H]3CCC3(F)F)cnn12 [Compound I-296]
< 0.1	CNc1cc(Nc2cccn([C@@H]3CCOC[C@@H]3OC)c2=O)nc2c(C(=O)N[C@@H]3CCC3(F)F)cnn12 [Compound I-338]
< 0.1	CNc1cc(Nc2cccn([C@H]3CC[C@@H]3O)c2=O)nc2c(C(=O)N[C@@H]3CC[C@@]3(C)OC)cnn12 [Compound I-377]
< 0.1	CNc1cc(Nc2cccn([C@H]3CC[C@H](OC)CC3)c2=O)nc2c(C(=O)N[C@@H]3CC[C@@]3(C)OC)cnn12 [Compound I-428]
< 0.1	CNc1cc(Nc2cccn([C@H]3CC[C@@H](OC)CC3)c2=O)nc2c(C(=O)N[C@@H]3CC[C@@]3(C)OC)cnn12 [Compound I-431]
